Source: PubChem BioAssay (NCI)
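Each compound was tested at five concentrations against cells in 96-well plates for 48 hours. GI50 is the concentration that inhibits growth by half. TGI: concentration producing complete growth inhibition.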 Where a SMILES comes first, the peptide text is derived from it. [ ]: non-standard residue; d: D form. The star is where a group is joined. ξ: configuration not given here. ξF = NC(Cc1ccccc1)C(=O)O; Cbz = O=C(OCc1ccccc1)*; Aib = CC(C)(N)C(=O)O

Legend:
Test in all cases: growth of human tumour cells (NCI), 48 h
HCC-2998 colon = tested on: HCC-2998 colon
UO-31 renal = tested on: UO-31 renal
SK-OV-3 ovarian = tested on: SK-OV-3 ovarian
HL-60(TB) leukemia = tested on: HL-60(TB) leukemia
SR leukemia = tested on: SR leukemia
SF-295 CNS = tested on: SF-295 CNS
EKVX NSCLC = tested on: EKVX NSCLC
OVCAR-4 ovarian = tested on: OVCAR-4 ovarian
HT29 colon = tested on: HT29 colon
A498 renal = tested on: A498 renal

| Compound | TGI (HCC-2998 colon) [µM] | TGI (UO-31 renal) [µM] | TGI (SK-OV-3 ovarian) [µM] | TGI (HL-60(TB) leukemia) [µM] | TGI (SR leukemia) [µM] | TGI (SF-295 CNS) [µM] | GI50 (EKVX NSCLC) [µM] | TGI (EKVX NSCLC) [µM] | GI50 (HCC-2998 colon) [µM] | GI50 (UO-31 renal) [µM] | GI50 (OVCAR-4 ovarian) [µM] | TGI (OVCAR-4 ovarian) [µM] | GI50 (SK-OV-3 ovarian) [µM] | GI50 (HT29 colon) [µM] | TGI (HT29 colon) [µM] | GI50 (SR leukemia) [µM] | TGI (A498 renal) [µM] | GI50 (A498 renal) [µM] | GI50 (HL-60(TB) leukemia) [µM] | GI50 (SF-295 CNS) [µM] |
| --- | --- | --- | --- | --- | --- | --- | --- | --- | --- | --- | --- | --- | --- | --- | --- | --- | --- | --- | --- | --- |
| CCOC(=O)CCC(NC(=O)OCc1ccccc1)C(=O)NC(CCC(=O)OCC)C(=O)NNC(=O)OC(C)(C)C (configuration not stated) | > 100 | > 100 | > 100 | > 100 | > 100 | > 100 | – | – | – | – | – | – | – | – | – | – | – | – | – | – |
| C[CH2][Ge]([CH2]C)([CH2]C)[O]C(=O)CCC(=O)[O][Ge]([CH2]C)([CH2]C)[CH2]C | > 100 | > 100 | > 100 | – | > 100 | – | 20.5 | > 100 | 90.9 | 87.5 | > 100 | > 100 | > 100 | 40.2 | > 100 | 40.3 | – | – | – | – |
| COC(=O)C(C)(C)NC(=O)C(Cc1ccccc1)NC(=O)C(C)(C)NC(=O)OCc1ccccc1 (configuration not stated) (Cbz-[Aib]-[ξF]-[Aib]-OMe) | > 100 | > 100 | > 100 | > 100 | – | > 100 | – | > 100 | – | – | – | > 100 | – | – | > 100 | – | > 100 | – | – | – |
| N=C(N)c1ccc(-c2ccc(-c3cccs3)s2)s1 | 2.48 | 2.1 | – | 3.42 | 0.895 | – | – | – | 1.13 | 0.318 | 1.33 | 4.16 | – | – | – | 0.302 | 0.846 | 0.279 | 1.58 | – |
| C(=N\OCCc1ccccc1)/c1cccnc1 | > 100 | > 100 | > 100 | > 100 | – | > 100 | – | > 100 | – | – | – | > 100 | – | – | > 100 | – | – | – | – | – |
| NCCSCc1ccccc1Cl | 38.7 | > 100 | – | – | 55.7 | > 100 | – | > 100 | – | – | – | > 100 | – | – | > 100 | – | 96.2 | – | – | – |
| COc1cc(-c2n/c(=C\c3c(O)[nH]c4cc(Cl)ccc34)cc3c2=Nc2ccccc2-3)cc(OC)c1OC | > 100 | > 100 | 11.3 | > 100 | 6.35 | 5.19 | 4.99 | 27.1 | 7.32 | 18.3 | 2.59 | 6.36 | 3.8 | 2.67 | 7.05 | 2.38 | 27.9 | 7.12 | 84.4 | 2.17 |
| Cc1ccc(C(O)(c2ccc(C)cc2)c2ccccn2)cc1 | > 100 | > 100 | > 100 | – | – | > 100 | – | > 100 | – | – | – | > 100 | – | – | > 100 | – | > 100 | – | – | – |
| CC(=O)ON1C(=O)c2cccc3cccc(c23)C1=O | > 100 | > 100 | > 100 | 45.5 | – | > 100 | – | > 100 | – | – | – | 40.7 | – | – | > 100 | – | 71.5 | – | – | – |
| c1cncc(O[Si](Oc2cccnc2)(Oc2cccnc2)Oc2cccnc2)c1 | > 100 | > 100 | > 100 | – | > 100 | > 100 | – | > 100 | – | – | – | > 100 | – | – | > 100 | – | – | – | – | – |
